Earlier results on two molecules are cited in US20260237528A1, “DRUG COMBINATIONS SCREENING” (Hoffmann-La Roche Inc., priority 2023, published 2026).

The data set has as its system tumour growth. The settings on record: tested alone.

`CN(C)CCCN1c2ccccc2Sc2ccc(Cl)cc21` [chlorpromazine]: the anti-tumour activity entry is “Neither of these drugs showed any anti-tumour activity when tested alone”. Take `N=C(N)c1ccc(OCCCCCOc2ccc(C(=N)N)cc2)cc1` [pentamidine]: the anti-tumour activity entry is reported as “Neither of these drugs showed any anti-tumour activity when tested alone”.
